The values below come from US20220016135A1, “TREATING BREAST CANCER WITH HORMONE RECEPTOR MODULATORS” (UNIVERSITY OF MIAMI, priority 2020, published 2022).

What all share (assay type): cell-based, human
One assay concerns BT20. As to the kind of experiment: cell proliferation assay (cell titer blue), BT20. To be noted: BT20 (HR1, VDR+), Calcitrol 25 nM alone; FIG. 24A-24C. (In general: The colour change of resazurin is a common sign of viable cells or microbes.)
For a further assay, the system named is SUM159. As to the kind of experiment: cell proliferation assay (cell titer blue), SUM159. To be noted: SUM159 (HR1, VDR+), Calcitrol 25 nM alone; FIG. 24A-24C.
The test system of a further assay is MDA-MB-468. As to the kind of experiment: cell proliferation assay (cell titer blue), MDA-MB-468. The settings on record: MDA-MB-468 (HR1, VDR+), Calcitrol 25 nM alone; FIG. 24A-24C.
In a further assay the test system is MDA-MB-453. As to the kind of experiment: cell proliferation assay, MDA-MB-453. The settings on record: ER-negative control cell line MDA-MB-453, ICI 182,780 100 nM; FIG. 24H.

Structures are written as SMILES.

Take `C=C1/C(=C\C=C2/CCC[C@]3(C)[C@@H]([C@H](C)CCCC(C)(C)O)CC[C@@H]23)C[C@@H](O)C[C@@H]1O` [Calcitrol, Calcitriol]: the proliferation entry in the assay on BT20, in the assay with SUM159 and in the assay with MDA-MB-468 was “reduction in proliferation” each time.

Regarding `C[C@]12CC[C@@H]3c4ccc(O)cc4C[C@@H](CCCCCCCCC[S+]([O-])CCCC(F)(F)C(F)(F)F)[C@H]3[C@@H]1CC[C@@H]2O` (stereo partly shown) [ICI 182,780], in the assay with MDA-MB-453, the “inhibition of cell proliferation” value was “no inhibition of cell proliferation”.
